# Laboratory results: ChEMBL document CHEMBL1201862, “PubChem BioAssay data set” (2004)
# The source made the active and inactive calls. Rule as the data show it, for most assays here: actives have a measured EC50 and inactives only a lower limit.
# Assays:
# Protein skinhead-1 = molecular target: T1, Protein skinhead-1 (Caenorhabditis elegans, UniProt P34707); type: functional
# T1 sequence (P34707 whole entry): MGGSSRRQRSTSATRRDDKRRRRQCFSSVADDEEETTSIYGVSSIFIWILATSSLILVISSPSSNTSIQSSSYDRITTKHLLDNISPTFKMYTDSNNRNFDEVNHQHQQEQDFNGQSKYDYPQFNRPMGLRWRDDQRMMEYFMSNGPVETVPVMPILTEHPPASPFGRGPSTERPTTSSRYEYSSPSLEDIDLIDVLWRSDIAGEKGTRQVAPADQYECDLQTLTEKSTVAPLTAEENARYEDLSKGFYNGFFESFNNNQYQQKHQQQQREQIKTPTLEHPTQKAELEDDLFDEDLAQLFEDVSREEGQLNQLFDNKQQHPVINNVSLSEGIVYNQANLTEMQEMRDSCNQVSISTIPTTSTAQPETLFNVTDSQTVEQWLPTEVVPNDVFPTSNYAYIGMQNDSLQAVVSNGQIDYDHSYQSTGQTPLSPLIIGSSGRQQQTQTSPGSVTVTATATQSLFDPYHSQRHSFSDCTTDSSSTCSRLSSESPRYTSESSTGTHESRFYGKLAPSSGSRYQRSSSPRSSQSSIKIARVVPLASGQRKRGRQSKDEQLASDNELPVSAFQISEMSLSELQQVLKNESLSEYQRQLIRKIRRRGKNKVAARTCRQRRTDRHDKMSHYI
# [1] = HEp-2 cell cytotoxicity, dose response, cytotoxicity control for RSV inhibitor project, HTS (AID 2410); type: functional; details: human respiratory syncytial virus
# [2] = microbe, parasite or virus in culture; type: functional; details: Mycobacterium tuberculosis
# [3] = NIH-3T3 fibroblast cytotoxicity, dose response, cytotoxicity control, cell-based, fluorescence, Alamar Blue, secondary assay (AID 2327); type: functional;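 also: NIH-3T3 mouse fibroblasts cultured with fluconazole at 8 µg/mL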
# [4] = C. albicans growth with fluconazole, confirmation, fluorescence, retest (AID 2467); type: functional, cell-based
# Streptokinase A = molecular target: T2, Streptokinase A (Streptococcus pyogenes serotype M1, UniProt P10520); test: S. pyogenes streptokinase expression inhibitors, potency, dose response, plasminogen activation absorbance, OD405 (AID 1914); type: functional, Streptococcus pyogenes M1 GAS;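 also: secreted streptokinase activity via plasminogen activation per viability signal from cell pellet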
# T2 sequence (P10520 whole entry): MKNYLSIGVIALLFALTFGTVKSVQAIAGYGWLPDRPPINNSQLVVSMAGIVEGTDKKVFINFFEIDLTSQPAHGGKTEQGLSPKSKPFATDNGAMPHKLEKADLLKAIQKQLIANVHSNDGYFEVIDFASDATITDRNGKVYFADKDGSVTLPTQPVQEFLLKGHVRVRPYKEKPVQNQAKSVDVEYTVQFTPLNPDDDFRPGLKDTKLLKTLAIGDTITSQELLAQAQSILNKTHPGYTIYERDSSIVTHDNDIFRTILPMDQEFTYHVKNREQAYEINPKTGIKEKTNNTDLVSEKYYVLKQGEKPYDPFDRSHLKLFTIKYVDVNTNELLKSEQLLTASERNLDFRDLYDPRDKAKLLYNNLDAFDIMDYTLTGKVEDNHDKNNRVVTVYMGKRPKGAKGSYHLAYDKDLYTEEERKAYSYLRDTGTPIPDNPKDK
# Streptococcus = test: Group A Streptococcus viability loss, dose response, counter-screen for streptokinase expression inhibitor project, luminescence, BacTiterGlo (AID 1915); type: functional, organism-based;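 also: potency for reduction of bacterial viability or growth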
# [5] = system: Streptococcus sp. 'group A'; test: growth inhibition of control SK(-) GAS strain, dose response, counter-screen for streptokinase expression inhibitor project, luminescence, kanamycin, BacTiterGlo, confirmation (AID 1900); type: functional, organism-based
# [6] = inhibitors of intracellular T. cruzi replication, confirmation, NIH3T3 host cells, beta-gal luminescence (AID 2044); type: functional, cell-based;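 also: intracellular parasites grown in NIH/3T3 mouse fibroblasts as host cells; luminescent beta-galactosidase reporter signal from transgenic T. cruzi replicating inside host cells; inhibitors lower the luminescence signal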
# H4 = test: Luminescence Cell-Based Dose Response HTS to Identify Activators of 5'UTR Stem-Loop Driven Prion Protein mRNA Translation in H4 Neuroglioblastoma Cells. [Related pubchem assays: 1829 (Project Summary), 1814 (Primary HTS)]; type: functional; details: Homo sapiens
# [7] = molecular target: FAD-linked sulfhydryl oxidase ALR (Homo sapiens, UniProt P55789); test: inhibitors of human ALR sulfhydryl oxidase, dose response, biochemical, H2O2 detection, luminescence, cherry-pick (AID 493248)
# [8] = inhibitors of firefly luciferase expression or activity, dose response, H4 neuroglioma cells, luminescence (AID 1990); type: functional, cell-based
# INS1 = test: beta cell apoptosis inhibitors, cytokine rescue, dose response, luminescence, retest (AID 449756); type: functional, cell-based; details: Rattus norvegicus;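 also: cell death triggered by IL-1 beta plus TNF-alpha plus IFN-gamma mixture; protective hits raise ATP signal compared with cytokine alone wells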
# [9] = cytotoxicity toward NIH3T3 fibroblasts, dose response, counter-screen, cell-based, ATP luminescence, mouse fibroblasts (AID 2010); type: functional;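 also: cells exposed to compound for about 90 hours before reading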
# [10] = Luminescence Cell-Based Dose Response HTS to Identify Inhibitors of 5'UTR Stem-Loop Driven Prion Protein mRNA Translation in H4 Neuroglioblastoma Cells. [Related pubchem assays: 1827 (Project Summary), 1813 (Primary HTS)]; type: functional
# [11] = inhibitors of SNCA 5'UTR-driven reporter translation, confirmation, H4 neuroglioma cells, luminescence (AID 1988); type: functional, cell-based
# Cytochrome P450 1A2 = molecular target: T3, Cytochrome P450 1A2 (Homo sapiens, UniProt P05177);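 also: PubChem cytochrome P450 panel assay, CYP1A2 panel member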
# T3 sequence (P05177 whole entry): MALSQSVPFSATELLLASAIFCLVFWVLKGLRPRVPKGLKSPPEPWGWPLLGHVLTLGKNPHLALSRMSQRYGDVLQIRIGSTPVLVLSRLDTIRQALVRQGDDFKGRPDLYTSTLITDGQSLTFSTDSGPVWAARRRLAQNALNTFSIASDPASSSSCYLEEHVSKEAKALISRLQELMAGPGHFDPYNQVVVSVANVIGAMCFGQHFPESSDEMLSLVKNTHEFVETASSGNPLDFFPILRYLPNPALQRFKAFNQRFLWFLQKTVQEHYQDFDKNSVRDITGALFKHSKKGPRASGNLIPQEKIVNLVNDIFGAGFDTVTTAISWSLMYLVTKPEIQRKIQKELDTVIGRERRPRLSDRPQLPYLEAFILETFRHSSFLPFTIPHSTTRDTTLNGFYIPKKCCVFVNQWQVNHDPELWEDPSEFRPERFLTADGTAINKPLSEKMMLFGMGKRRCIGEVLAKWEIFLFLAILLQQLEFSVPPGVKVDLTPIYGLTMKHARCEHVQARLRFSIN
# Cytochrome P450 2C9 = Cytochrome P450 2C9 (Homo sapiens, UniProt P11712)
# Chain of Cytochrome P450 2C9 (P11712 whole entry): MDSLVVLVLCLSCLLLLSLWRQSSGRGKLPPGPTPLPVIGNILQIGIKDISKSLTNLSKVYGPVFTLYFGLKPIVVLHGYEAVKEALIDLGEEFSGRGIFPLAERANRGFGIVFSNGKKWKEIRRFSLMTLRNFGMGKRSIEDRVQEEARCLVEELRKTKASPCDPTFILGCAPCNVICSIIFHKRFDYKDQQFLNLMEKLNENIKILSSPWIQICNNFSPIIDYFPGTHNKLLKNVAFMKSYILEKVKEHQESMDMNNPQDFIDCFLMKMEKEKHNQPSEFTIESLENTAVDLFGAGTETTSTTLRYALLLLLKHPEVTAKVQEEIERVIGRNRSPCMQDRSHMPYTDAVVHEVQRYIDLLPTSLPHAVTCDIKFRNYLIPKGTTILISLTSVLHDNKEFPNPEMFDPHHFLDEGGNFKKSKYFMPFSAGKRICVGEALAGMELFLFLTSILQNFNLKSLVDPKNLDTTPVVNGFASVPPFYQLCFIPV
# Chain of FAD-linked sulfhydryl oxidase ALR (P55789 whole entry): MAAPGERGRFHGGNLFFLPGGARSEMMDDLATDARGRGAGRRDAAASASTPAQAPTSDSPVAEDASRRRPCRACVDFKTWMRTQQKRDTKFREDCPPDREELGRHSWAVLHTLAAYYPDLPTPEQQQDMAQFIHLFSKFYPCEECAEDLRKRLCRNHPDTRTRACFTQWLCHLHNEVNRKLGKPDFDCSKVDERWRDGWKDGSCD
compound,measurement,setting,value
Brc1cccc(OCCSc2ncccn2)c1,IC50,Protein skinhead-1,63.6 µM (inactive)
Cc1nn(C)c(C(=O)Nc2cccc(Nc3ccccc3)c2)c1[N+](=O)[O-],CC50,[1],23.1 µM (active)
CCCOc1cccc(-c2nn(-c3ccccc3)cc2/C=C(\C#N)C(=O)NCCCn2ccnc2)c1,CC50,[2],> 40 µM (active)
CCOc1ccccc1C(=O)N/N=C/c1ccoc1,EC50,[3],138 µM (active)
same,EC50,[4],3.33 µM (active)
CCCc1cc(=O)n2nc(C)c(-c3ccc(Cl)cc3)c2[nH]1,CC50,[2],39.5 µM (active)
same,EC50,Streptokinase A,> 150 µM (not active)
same,EC50,Streptococcus,11.3 µM (active)
same,EC50,[5],3.37 µM (active)
O=[N+]([O-])C(/C=C(\Cl)[N+](=O)[O-])=C(N1CCCCC1)N1CCCCC1,EC50,[6],0.956 µM (active)
same,EC50,H4,> 120 µM (not active)
Clc1ccc(-c2nc(-c3cnccn3)no2)cc1,IC50,Protein skinhead-1,74.1 µM (inactive)
O=C(NCC(=O)N1CCN(c2ccccc2O)CC1)c1cccs1,AC50,[7],4.14 µM (active)
COc1ccc(C2=CC(c3c(C)nn(-c4ccccc4)c3Cl)n3nnnc3N2)cc1OC (centres undefined),CC50,[2],> 40 µM (active)
same,CC50,[1],24.1 µM (active)
CCn1cc(C(=O)OCC(=O)Nc2cccc(Cl)c2Cl)c(=O)c2ccc(C)nc21,EC50,[3],> 150 µM (inactive)
same,EC50,[4],> 38 µM (not active)
COc1ccc(NC(=O)CN2CCN(Cc3ccc4c(c3)OCO4)CC2)cc1OC,IC50,Protein skinhead-1,> 100 µM (inactive)
O=C1N=C(N/N=C/c2cccnc2)SC1Cc1ccc(SC(F)F)cc1 (centres undefined),EC50,[6],0.969 µM (active)
same,EC50,[8],11.9 µM (active)
same,AC50,INS1,2.56 µM (active)
same,EC50,[3],> 150 µM (inactive)
same,EC50,[4],1.87 µM (active)
same,EC50,Streptococcus,8.36 µM (active)
same,EC50,[9],3.44 µM (active)
same,EC50,[5],3.31 µM (active)
same,EC50,[10],12.2 µM (active)
same,EC50,[11],12.3 µM (active)
CC(=O)N1CCN(C(=S)c2ccc(N(C)C)cc2)CC1,AC50,[7],1.13 µM (active)
CC1=NN(C(N)=S)C(=O)C1N=Nc1ccc(C)c(Br)c1 (centres undefined),CC50,[2],> 40 µM (active)
Clc1ccc(CSc2ncn(-c3ccccc3)n2)cc1,IC50,Protein skinhead-1,10.3 µM (active)
O=C(O)c1ccc(CSc2nc3ccccc3o2)cc1,AC50,[7],51.7 µM (active)
same,AC50,Cytochrome P450 1A2,0.0501 µM (inconclusive)
same,AC50,Cytochrome P450 2C9,39.8 µM (inconclusive)
CCCCCCCNC(=O)c1ccc(N2CCC3(CC2)OCCO3)c([N+](=O)[O-])c1,CC50,[2],> 40 µM (active)
Cc1nc(NC(=O)c2c(-c3ccccc3)noc2C)sc1C(=O)N(C)C,EC50,[3],> 160 µM (inactive)
same,EC50,[4],> 38 µM (not active)
COc1ccc(OC)c2c(C)cc(N3CCCN(C)CC3)nc12,AC50,[7],22 µM (active)
O=C(c1cc(-c2ccccc2)on1)N1CCc2ccccc2C1,IC50,Protein skinhead-1,> 100 µM (inactive)
